Measured values published in ChEMBL document CHEMBL4610120, “New Broad-Spectrum Antibiotics Containing a Pyrrolobenzodiazepine Ring with Activity against Multidrug-Resistant Gram-Negative Bacteria” (J Med Chem, 2020).
≈ marks a conversion by molar mass, not a printed value. Calls of active or inactive are those of the source. The rule behind the calls is not given here.

Columns and labels:
Pseudomonas aeruginosa [1] = experiment: Antimicrobial activity against Pseudomonas aeruginosa PAO1 by microdilution broth method; assay type: functional
Enterococcus faecalis [2] = experiment: Antibacterial activity against vancomycin resistant Enterococcus faecalis NCTC 12201 by microdilution broth method; assay type: functional
DNA [3] = experiment: Stabilization of 5'-FAM-TAT-ATA-TAG-ATA-TTT-TTT-TAT-CTA-TAT-ATA-3'-TAMRA DNA (unknown origin) assessed as reduction in change in melting temperature at 1:1 to 5:1 ligand to DNA ratio measured after 3 hrs by FRET-based assay relative to control; assay type: ADME, nucleic-acid assay
Enterococcus faecalis [4] = experiment: Antibacterial activity against vancomycin sensitive Enterococcus faecalis NCTC 775 by microdilution broth method; assay type: functional
[5] = Cytotoxicity against human WI38 cells assessed as cell viability at 20 uM measured after 24 hrs by MTT assay relative to control; assay type: cell-based, WI-38; settings: read-out: Activity
DNA [6] = experiment: Stabilization of 5'-FAM-TAT-AGA-TAT-AGA-TAT-TTT-ATA-TCT-ATA-TCT-ATA-3'-TAMRA DNA (unknown origin) assessed as reduction in change in melting temperature at 1:1 to 5:1 ligand to DNA ratio measured after 3 hrs by FRET-based assay relative to control; assay type: ADME, nucleic-acid assay
Staphylococcus aureus [7] = experiment: Antibacterial activity against methicillin resistant Staphylococcus aureus NCTC 13616 by microdilution broth method; assay type: functional
Acinetobacter baumannii [8] = experiment: Antimicrobial activity against Acinetobacter baumannii ATCC 17978 by microdilution broth method; assay type: functional
Staphylococcus aureus [9] = experiment: Antibacterial activity against methicillin sensitive Staphylococcus aureus NCTC 6571 by microdilution broth method; assay type: functional
Enterococcus faecium = experiment: Antibacterial activity against vancomycin resistant Enterococcus faecium NCTC 12204 by microdilution broth method; assay type: functional
Acinetobacter baumannii [10] = experiment: Antimicrobial activity against multidrug-resistant Acinetobacter baumannii AYE by microdilution broth method; assay type: functional
Staphylococcus aureus [11] = experiment: Antibacterial activity against methicillin resistant Staphylococcus aureus NCTC 13277 by microdilution broth method; assay type: functional
[12] = target: T1, Protein RecA (Escherichia coli K-12) (UniProt P0A7G6); experiment: Induction of Escherichia coli K12 MG1655 recA promotor measured at 30 mins interval for 20 hrs by fluorescence assay relative to control; settings: Escherichia coli str. K-12 substr. MG1655
T1 sequence (whole entry): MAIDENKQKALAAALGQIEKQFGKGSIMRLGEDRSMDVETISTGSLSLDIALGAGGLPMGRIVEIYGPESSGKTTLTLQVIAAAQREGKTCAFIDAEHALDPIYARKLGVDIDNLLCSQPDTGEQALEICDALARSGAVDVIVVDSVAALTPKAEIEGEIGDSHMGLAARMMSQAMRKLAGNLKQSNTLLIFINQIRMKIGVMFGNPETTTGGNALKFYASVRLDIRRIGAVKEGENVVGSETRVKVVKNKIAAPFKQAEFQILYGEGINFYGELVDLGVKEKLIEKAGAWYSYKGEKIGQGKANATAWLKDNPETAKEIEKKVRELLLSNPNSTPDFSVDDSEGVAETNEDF

[13] = target: T2, LexA repressor (Escherichia coli) (UniProt P0A7C2); experiment: Induction of Escherichia coli K12 MG1655 lexA promotor measured at 30 mins interval for 20 hrs by fluorescence assay relative to control; settings: Escherichia coli str. K-12 substr. MG1655
T2 sequence (whole entry): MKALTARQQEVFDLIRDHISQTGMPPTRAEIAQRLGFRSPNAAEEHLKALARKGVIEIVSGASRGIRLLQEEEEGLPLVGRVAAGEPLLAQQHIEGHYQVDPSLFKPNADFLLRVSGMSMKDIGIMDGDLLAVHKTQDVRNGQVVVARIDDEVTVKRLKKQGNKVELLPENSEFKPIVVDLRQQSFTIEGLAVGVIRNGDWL

[14] = target: T3, Cell division inhibitor SulA (Escherichia coli K-12) (UniProt P0AFZ5); experiment: Induction of Escherichia coli K12 MG1655 sulA promotor measured at 30 mins interval for 20 hrs by fluorescence assay relative to control; settings: Escherichia coli str. K-12 substr. MG1655
T3 sequence (whole entry): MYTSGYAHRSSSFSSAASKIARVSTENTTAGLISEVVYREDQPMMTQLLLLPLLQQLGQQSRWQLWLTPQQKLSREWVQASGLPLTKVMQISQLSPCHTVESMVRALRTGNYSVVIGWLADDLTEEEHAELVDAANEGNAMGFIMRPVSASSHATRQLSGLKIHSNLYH

[15] = target: T4, DNA repair protein RecN (Escherichia coli) (UniProt P05824); experiment: Induction of Escherichia coli K12 MG1655 recN promotor measured at 30 mins interval for 20 hrs by fluorescence assay relative to control; settings: Escherichia coli str. K-12 substr. MG1655
T4 sequence (whole entry): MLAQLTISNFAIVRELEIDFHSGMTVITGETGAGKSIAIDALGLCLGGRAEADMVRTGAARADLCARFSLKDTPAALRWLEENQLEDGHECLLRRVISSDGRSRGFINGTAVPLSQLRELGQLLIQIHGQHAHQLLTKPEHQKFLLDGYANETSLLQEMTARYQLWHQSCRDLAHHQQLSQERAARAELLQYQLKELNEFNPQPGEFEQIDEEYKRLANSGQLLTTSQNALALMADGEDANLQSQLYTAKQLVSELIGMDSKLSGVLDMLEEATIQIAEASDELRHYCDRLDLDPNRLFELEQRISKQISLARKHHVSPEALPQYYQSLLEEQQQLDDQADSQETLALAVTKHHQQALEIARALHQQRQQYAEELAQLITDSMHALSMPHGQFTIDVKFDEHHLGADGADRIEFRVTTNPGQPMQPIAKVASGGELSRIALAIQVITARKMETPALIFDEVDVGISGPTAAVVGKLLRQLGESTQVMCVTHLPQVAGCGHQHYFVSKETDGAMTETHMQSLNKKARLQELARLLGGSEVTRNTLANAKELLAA

[16] = Selectivity ratio of cytotoxicity against human WI38 cells to MIC for multidrug-resistant Klebsiella pneumoniae NCTC 13368; assay type: toxicity, cell-based
[17] = Selectivity ratio of cytotoxicity against human WI38 cells to MIC for methicillin resistant Staphylococcus aureus NCTC 13616; assay type: toxicity, cell-based
[18] = Selectivity ratio of cytotoxicity against human WI38 cells to MIC for methicillin sensitive Staphylococcus aureus NCTC 6571; assay type: toxicity, cell-based
[19] = Selectivity ratio of cytotoxicity against human WI38 cells to MIC for Klebsiella pneumoniae M6; assay type: toxicity, cell-based
[20] = Selectivity ratio of cytotoxicity against human WI38 cells to MIC for multidrug-resistant Pseudomonas aeruginosa NCTC 13437; assay type: toxicity, cell-based
[21] = Selectivity ratio of cytotoxicity against human WI38 cells to MIC for vancomycin resistant Enterococcus faecalis NCTC 12201; assay type: toxicity, cell-based
[22] = Selectivity ratio of cytotoxicity against human WI38 cells to MIC for methicillin resistant Staphylococcus aureus NCTC 13277; assay type: toxicity, cell-based
[23] = Selectivity ratio of cytotoxicity against human WI38 cells to MIC for Acinetobacter baumannii ATCC 17978; assay type: toxicity, cell-based
[24] = Selectivity ratio of cytotoxicity against human WI38 cells to MIC for Pseudomonas aeruginosa PAO1; assay type: toxicity, cell-based
[25] = Selectivity ratio of cytotoxicity against human WI38 cells to MIC for vancomycin sensitive Enterococcus faecalis NCTC 775; assay type: toxicity, cell-based
[26] = Selectivity ratio of cytotoxicity against human WI38 cells to MIC for vancomycin resistant Enterococcus faecium NCTC 12204; assay type: toxicity, cell-based
[27] = Selectivity ratio of cytotoxicity against human WI38 cells to MIC for multidrug-resistant Acinetobacter baumannii AYE; assay type: toxicity, cell-based
Klebsiella pneumoniae [28] = experiment: Antimicrobial activity against multidrug-resistant Klebsiella pneumoniae NCTC 13368 by microdilution broth method; assay type: functional
Klebsiella pneumoniae [29] = experiment: Antimicrobial activity against Klebsiella pneumoniae M6 by microdilution broth method; assay type: functional
Pseudomonas aeruginosa [30] = experiment: Antimicrobial activity against multidrug-resistant Pseudomonas aeruginosa NCTC 13437 by microdilution broth method; assay type: functional

## COC(=O)c1cc(NC(=O)c2cc3cc(NC(=O)c4cc(NC(=O)CCCOc5cc6c(cc5OC)C(=O)N5CCC[C@H]5C=N6)cn4C)ccc3s2)cn1C
Pseudomonas aeruginosa [1]
  MIC: > 128 µg/mL
Enterococcus faecalis [2]
  MIC: ≤ 0.125 µg/mL
DNA [3]
  fold change (FC): 3 to 4
Enterococcus faecalis [4]
  MIC: ≤ 0.125 µg/mL
[5]
  viability at 24 h, 20 µM: 32%
DNA [6]
  fold change (FC): 3 to 4
Staphylococcus aureus [7]
  MIC: 0.5 µg/mL (≈ 0.653 µM)
Acinetobacter baumannii [8]
  MIC: 64 µg/mL (≈ 83.6 µM)
Staphylococcus aureus [9]
  MIC: ≤ 0.125 µg/mL
Enterococcus faecium
  MIC: ≤ 0.125 µg/mL
Acinetobacter baumannii [10]
  MIC: 64 µg/mL (≈ 83.6 µM)
Staphylococcus aureus [11]
  MIC: 1 µg/mL (≈ 1.31 µM)

## COc1c(N2C[C@@H]3CCCN[C@@H]3C2)c(F)cc2c(=O)c(C(=O)O)cn(C3CC3)c12
[12]
  fold change (FC): 20 to 35
[13]
  fold change (FC): 5 to 13
[14]
  fold change (FC): 17 to 41
[15]
  fold change (FC): 14 to 32

## CCn1cc(C(=O)O)c(=O)c2cc(F)c(N3CCNCC3)cc21
[12]
  fold change (FC): 20 to 35
[13]
  fold change (FC): 5 to 13
[14]
  fold change (FC): 17 to 41
[15]
  fold change (FC): 14 to 32

## CO[C@H]1/C=C/O[C@@]2(C)Oc3c(C)c(O)c4c(O)c(c(/C=N/N5CCN(C)CC5)c(O)c4c3C2=O)NC(=O)/C(C)=C\C=C\[C@H](C)[C@H](O)[C@@H](C)[C@@H](O)[C@@H](C)[C@H](OC(C)=O)[C@@H]1C
[12]
  Activity: inactive
[13]
  Activity: inactive
[14]
  Activity: inactive
[15]
  Activity: inactive

## C[C@H]1COc2c(N3CCN(C)CC3)c(F)cc3c(=O)c(C(=O)O)cn1c23
[12]
  fold change (FC): 20 to 35
[13]
  fold change (FC): 5 to 13
[14]
  fold change (FC): 17 to 41
[15]
  fold change (FC): 14 to 32

## CC1(C)S[C@@H]2[C@H](NC(=O)[C@H](N)c3ccccc3)C(=O)N2[C@H]1C(=O)O
[12]
  Activity: inactive
[13]
  Activity: inactive
[14]
  Activity: inactive
[15]
  Activity: inactive

## CO[C@@H]1[C@@H](OC(N)=O)[C@@H](O)[C@H](Oc2ccc3c(O)c(NC(=O)c4ccc(O)c(CC=C(C)C)c4)c(=O)oc3c2C)OC1(C)C
[12]
  fold change (FC): 20 to 35
[13]
  fold change (FC): 5 to 13
[14]
  fold change (FC): 17 to 41
[15]
  fold change (FC): 14 to 32

## COc1cc2c(cc1OCCCC(=O)Nc1cc(C(=O)Nc3ccc4sc(C(=O)N5CCOCC5)cc4c3)n(C)c1)N=C[C@@H]1CCCN1C2=O
[16]
  selectivity ratio: 10
[17]
  selectivity ratio: 100
[18]
  selectivity ratio: 100
Pseudomonas aeruginosa [1]
  MIC: 64 µg/mL (≈ 91.6 µM)
[19]
  selectivity ratio: 10
Enterococcus faecalis [2]
  MIC: ≤ 0.125 µg/mL
[20]
  selectivity ratio: 10
[21]
  selectivity ratio: 100
[22]
  selectivity ratio: 100
DNA [3]
  fold change (FC): 3 to 4
Enterococcus faecalis [4]
  MIC: ≤ 0.125 µg/mL
[5]
  viability at 24 h, 20 µM: > 85%
[23]
  selectivity ratio: 10
[24]
  selectivity ratio: 10
DNA [6]
  fold change (FC): 3 to 4
[25]
  selectivity ratio: 100
Staphylococcus aureus [7]
  MIC: ≤ 0.125 µg/mL
[26]
  selectivity ratio: 100
Acinetobacter baumannii [8]
  MIC: 8 µg/mL (≈ 11.4 µM)
Staphylococcus aureus [9]
  MIC: ≤ 0.125 µg/mL
Enterococcus faecium
  MIC: ≤ 0.125 µg/mL
[27]
  selectivity ratio: 10
Staphylococcus aureus [11]
  MIC: 0.5 µg/mL (≈ 0.716 µM)

## COC(=O)c1cc(NC(=O)c2cc(NC(=O)CCCOc3cc4c(cc3OC)C(=O)N3CCC[C@H]3C=N4)cn2C)cn1C
Pseudomonas aeruginosa [1]
  MIC: 128 µg/mL (≈ 217 µM)
Enterococcus faecalis [2]
  MIC: 0.5 µg/mL (≈ 0.847 µM)
Klebsiella pneumoniae [28]
  MIC: > 128 µg/mL
DNA [3]
  fold change (FC): 3 to 4
Klebsiella pneumoniae [29]
  MIC: > 128 µg/mL
Enterococcus faecalis [4]
  MIC: 1 µg/mL (≈ 1.69 µM)
Pseudomonas aeruginosa [30]
  MIC: > 128 µg/mL
[5]
  viability at 24 h, 20 µM: 35%
DNA [6]
  fold change (FC): 3 to 4
Staphylococcus aureus [7]
  MIC: 1 µg/mL (≈ 1.69 µM)
Acinetobacter baumannii [8]
  MIC: 128 µg/mL (≈ 217 µM)
Staphylococcus aureus [9]
  MIC: 0.5 µg/mL (≈ 0.847 µM)
Enterococcus faecium
  MIC: 0.5 µg/mL (≈ 0.847 µM)
Acinetobacter baumannii [10]
  MIC: 128 µg/mL (≈ 217 µM)
Staphylococcus aureus [11]
  MIC: 2 µg/mL (≈ 3.39 µM)

## C[C@H]1c2cccc(O)c2C(=O)C2=C(O)[C@]3(O)C(=O)C(C(N)=O)=C(O)[C@@H](N(C)C)[C@@H]3[C@@H](O)[C@@H]21
[12]
  Activity: inactive
[13]
  Activity: inactive
[14]
  Activity: inactive
[15]
  Activity: inactive
